The source of these data is US8703961B2, “Thiazole derivatives for the treatment of diseases such as cancer” (Merck Patent GmbH, priority 2009, dated 2014).

One data set addresses T1, TBK1 (Homo sapiens, UniProt Q9UHD2).
T1 construct: purchased
T1 sequence (Q9UHD2 1-729): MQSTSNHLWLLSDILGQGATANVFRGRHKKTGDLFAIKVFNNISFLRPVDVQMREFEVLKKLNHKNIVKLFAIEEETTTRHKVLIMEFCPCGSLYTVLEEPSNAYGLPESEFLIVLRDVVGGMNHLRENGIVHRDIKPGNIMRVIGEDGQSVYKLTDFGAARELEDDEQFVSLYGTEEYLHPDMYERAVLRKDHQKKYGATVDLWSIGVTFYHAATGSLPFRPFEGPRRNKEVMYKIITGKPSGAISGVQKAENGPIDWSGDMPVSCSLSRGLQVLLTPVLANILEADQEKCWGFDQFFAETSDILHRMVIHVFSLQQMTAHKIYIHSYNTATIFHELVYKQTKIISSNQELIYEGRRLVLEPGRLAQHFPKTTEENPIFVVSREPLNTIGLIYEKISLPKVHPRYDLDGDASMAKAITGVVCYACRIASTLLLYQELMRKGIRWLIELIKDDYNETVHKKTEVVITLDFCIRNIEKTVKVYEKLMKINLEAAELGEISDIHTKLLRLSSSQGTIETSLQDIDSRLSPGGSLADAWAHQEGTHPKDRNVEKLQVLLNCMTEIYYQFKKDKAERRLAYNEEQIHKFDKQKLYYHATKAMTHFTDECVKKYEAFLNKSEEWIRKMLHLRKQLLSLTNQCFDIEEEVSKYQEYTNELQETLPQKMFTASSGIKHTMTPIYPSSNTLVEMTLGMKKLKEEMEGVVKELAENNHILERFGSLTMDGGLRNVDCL
The data set is described as follows: filter binding kinase assay. The format is biochemical. The conditions noted are these: derived from % inhibition at 1 μM. As to the method:
All kinase assays were carried out using the Multidrop 384 from Thermo-Fisher at room temperature in a total assay volume of 25.5 μl. 15 μl of an enzyme mix comprising enzyme and substrate in buffer are added to the test batch comprising either 0.5 μl of test substance, DMSO control or empty container. Test substances are pre-incubated in the presence of the enzyme and substrate for 5 minutes before the reaction is initiated by addition of 10 μl of ATP (concentration kinase-dependent of […]). The reaction is terminated by addition of 5 μl of orthophosphoric acid (50 mM). The test containers are then transferred onto P81 Unifilter plates by means of a “Packard Harvester” and dried in air. The dry Unifilter plates are sealed after the addition of MicroScint O, and the radioactivity is determined in a Packard Topcount NXT.

As a reminder, the IC50 is the concentration that gives 50% inhibition. Regarding `Nc1ncc(-c2cnn(C3CCNCC3)c2)cc1-c1nc2[nH]c(-c3ccc(F)cc3)cc2s1` [Compound A31], the IC50 at TBK1 was 10 to 1000 nM.

The term melting point denotes the temperature of the solid-liquid transition. As for `CC(C)(C)OC(=O)Nc1ncsc1C#Cc1ccc(F)cc1` [Compound A15, tert-butyl N-{5-[2-(4-fluorophenyl)ethynyl]-1,3-thiazol-4-yl}carbamate], the melting point was in the range of 139 to 144 °C.
